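Grown in 96-well plates, cells were treated for 48 hours with each compound at five concentrations. Insufficient inhibition: endpoint recorded as highest concentration tested. The concentration for 50% growth inhibition is given as GI50.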 The source made the active and inactive calls. No stated cut-off is given here; in the data, active = GI50 up to about 1.1 µM and inactive = higher.
How the values were obtained:
Test in all cases: inhibition of tumour cell growth, NCI panel, 48 h
[1] = test system: A498
[2] = test system: CCRF-CEM
[3] = test system: HCT-116
[4] = test system: HT-29
[5] = test system: M14
[6] = test system: MDA-MB-231
[7] = test system: MDA-MB-435
[8] = test system: MOLT-4
[9] = test system: Malme-3M
[10] = test system: NCI-H226
[11] = test system: NCI-H522
[12] = test system: NCI/ADR-RES
[13] = test system: SF-268
[14] = test system: SF-295
[15] = test system: SNB-19
[16] = test system: SNB-75
[17] = test system: SR
[18] = test system: U-251
[19] = test system: UACC-257
[20] = test system: UO-31

Measured: GI50

N#CCC1(c2ccc(Cl)cc2)NC(=O)c2ccccc21 (stereo not given)
inactive: [1] > 100 µM | [2] > 100 µM | [3] > 100 µM | [4] > 100 µM | [5] > 100 µM | [6] > 100 µM | [7] > 100 µM | [8] > 100 µM | [9] > 100 µM | [10] > 100 µM | [11] > 100 µM | [12] > 100 µM | [13] > 100 µM | [14] > 100 µM | [15] > 100 µM | [16] 60.8 µM | [17] > 100 µM | [18] > 100 µM | [19] > 100 µM | [20] > 100 µM

O=C(OCCN1CCCCC1)C(c1ccccc1)C1(O)CCSCC1 (stereo not given)
inactive: [1] > 100 µM | [2] > 100 µM | [3] > 100 µM | [4] > 100 µM | [5] > 100 µM | [6] > 100 µM | [7] > 100 µM | [8] > 100 µM | [9] > 100 µM | [10] > 100 µM | [11] > 100 µM | [12] > 100 µM | [13] > 100 µM | [14] > 100 µM | [15] > 100 µM | [16] 83.4 µM | [17] > 100 µM | [18] > 100 µM | [19] > 100 µM | [20] > 100 µM

CC(=O)Oc1ccc2oc(=O)cc(C)c2c1
inactive: [1] > 100 µM | [2] > 100 µM | [3] > 100 µM | [4] > 100 µM | [5] > 100 µM | [6] > 100 µM | [7] > 100 µM | [8] > 100 µM | [9] > 100 µM | [10] > 100 µM | [11] > 100 µM | [12] > 100 µM | [13] > 100 µM | [14] > 100 µM | [15] > 100 µM | [16] > 100 µM | [17] > 100 µM | [18] > 100 µM | [19] > 100 µM | [20] > 100 µM

Cc1nc(N)sc1/N=N/c1ccccc1Br
inactive: [1] 14.2 µM | [2] 3.75 µM | [3] 33.2 µM | [4] 35.9 µM | [5] 37.7 µM | [6] 37.3 µM | [7] 24.3 µM | [8] > 52.2 µM | [9] 26.2 µM | [10] 39.7 µM | [11] 14.2 µM | [12] 39.4 µM | [13] 17.2 µM | [14] 44.9 µM | [15] > 44.5 µM | [16] 10.3 µM | [17] 35.2 µM | [18] 31 µM | [19] 32.9 µM | [20] 31 µM

Reference: ChEMBL document CHEMBL1201862, “PubChem BioAssay data set” (2004)
